One experiment relates to A549 cells. Nature of the experiment: Cell cycle analysis by flow cytometry (PI). In kind it is cell-based, human. The settings on record: A549, 3 μM, 24 h; control 10.4%. On the procedure: A549 cells treated with BMPQ-1 were harvested and washed in PBS and fixed with 70% ethanol at 4°C overnight. Then, the cells were centrifuged and re-suspended in a staining solution (50 μg/mL propidium iodide (PI), 75 KU/ml RNase A in PBS) for 30 min at room temperature in the dark. The cells were analyzed by flow cytometer (BD FacsAria, USA). For each analysis, 2.0 × 10^4 events were collected.
Figure S9. BMPQ-1 induced A549 cell cycle arrest. (A) The cell cycle analysis of A549 cells after 24 h treatment with BMPQ-1. The cells were collected and stained with propidium iodide (PI). (B) Percentage of A549 cells in different phases of the cell cycle. […]
different from the control. […]
(In flow cytometry, cells or beads pass a laser one at a time.)

The test system of experiment [1] is TTA57/T5 (DNA, G4) GGGTTAGGGTTAGGGTTAGGGTTATTATTATTATTAGGGTTAGGGTTAGGGTTAGGG
Nature of the experiment: fluorescence titration. The settings on record: 100 mM K+ (KCl) plus potassium phosphate; 10 mM K2HPO4/KH2PO4 pH 7.0; 3 µM compound, DNA 0-10 µM; weaker than TTA45.

The subject of another experiment is c-KIT1. Nature of the experiment: CD melting, DNA stabilization. In kind it is binding. The note with it: 5 µM DNA, 20 µM BMPQ-1, 10 mM Tris-HCl, 50 mM KCl, pH 7.4.
Experiment [2] concerns TTA43 (DNA, G4) GGGTTAGGGTTAGGGTTAGGGTGGGTTAGGGTTAGGGTTAGGG
Nature of the experiment: fluorescence titration. The note with it: 100 mM K+ (KCl) plus potassium phosphate; 10 mM K2HPO4/KH2PO4 pH 7.0; 3 µM compound, DNA 0-10 µM; weaker than TTA45.

Experiment [3] deals with TTA45. Nature of the experiment: CD melting, DNA stabilization. In kind it is binding, human. The note with it: 5 µM DNA, 20 µM compound, 10 mM Tris-HCl, 50 mM KCl, pH 7.4. The text has this:
Compounds Structures IC /µM m

For another experiment, the system named is TBA. Nature of the experiment: CD melting, DNA stabilization. In kind it is binding. The note with it: 5 µM DNA, 20 µM BMPQ-1, 10 mM Tris-HCl, 50 mM KCl, pH 7.4.
Experiment [4] concerns the target TTA45. Nature of the experiment: smFRET analysis of TTA45 conformational ensemble. Type of experiment: binding, human. The note with it: from high-FRET population against BMPQ-1 concentration; read-out: dissociation constant (KD). The method, then:
5′- FAM and 3′-Cy5 labeled TTA45 oligonucleotides were annealed in the buffer of 10 mM Tris–HCl (pH 7.4) and 100 mM KCl, by heating to 95°C for 5 min and slowly cooling down to room temperature. smFRET data collection and analysis were performed as previously described ([43]). In brief, an A1 confocal microscope (Nikon, Japan) coupled to two picosecond pulsed diode laser heads (LDH-P-C-485B and LDH-P-C-640B, PicoQuant, Germany) and two SPCM-AQRH detectors (Excelitas, Canada) was used for fluorescence excitation and emission detection. A 60 × water immersion objective (WI 60×, NA 1.20, Nikon, Japan) was used for confocal laser microscopy, and the pinhole size was set at ∼100 μm. The laser power before the objective was set at ∼100 μW for the 485-nm laser and ∼35 μW for the 640-nm laser. […]
The smFRET measurements were performed at room temperature in pH 7.4 buffer containing 10 mM Tris–HCl, 100 mM KCl, and 0.01% (v/v) Tween 20, with additional 1 mM ascorbic acid and 1 mM methylviologen for photo bleaching and blinking minimization ([44]). […] The exact FRET efficiencies were calculated based on our calibrated parameters for the instrument and fluorophores, and the FRET efficiency distribution was analyzed with a multi-Gaussian mixture using a handwritten script.

For experiment [5], the system named is 19AT (DNA, duplex) ACGTCGATTATAGACGAGC/GCTCGTCTATAATCGACGT
Nature of the experiment: CD melting. The settings on record: 50 mM K+; 10 mM Tris-HCl pH 7.4; 5 µM DNA, 20 µM compound.

Experiment [6] concerns TTA51/T3 (DNA, G4) GGGTTAGGGTTAGGGTTAGGGTTATTATTAGGGTTAGGGTTAGGGTTAGGG
Nature of the experiment: fluorescence titration. The settings on record: 100 mM K+ (KCl) plus potassium phosphate; 10 mM K2HPO4/KH2PO4 pH 7.0; 3 µM compound, DNA 0-10 µM; weaker than TTA45.

Experiment [7] concerns FAM-TTA45-Cy5 (DNA, G4) GGGTTAGGGTTAGGGTTAGGGTTAGGGTTAGGGTTAGGGTTAGGG
Nature of the experiment: smFRET population titration. The settings on record: 100 mM K+; 10 mM Tris-HCl pH 7.4, 0.01% Tween 20, 1 mM ascorbic acid, 1 mM methylviologen, room temperature; apparent.

A word on the Kd: it is the equilibrium constant for the complex coming apart. For orientation: ΔTm means the shift of the melting midpoint relative to a reference. In the case of `Cc1ccc(Cn2cc3c(-c4ccc5c(c4)OCO5)nnc-3c3cc4c(cc32)OCO4)cc1` [BMPQ-1], the “percentage of G2/M phase” value in the experiment with A549 cells turned out to be 17.8%. Moreover, the binding entry in experiment [1], in [2] and in [6] was “yes” in each case. In the experiment with c-KIT1, the “ΔTm (°C) c-KIT1” value was found to be 6.6 °C. Further, the “ΔTm (°C) TTA45” value in the experiment with TTA45 [3] amounted to 14.6 °C. Moreover, the “ΔTm (°C) TBA” value in the experiment on TBA was 4.7 °C. Besides, on TTA45 [4], the Kd amounted to 530 nM. Besides, the ΔTm in [5] was 1.8 °C. Also, the KD in [7] amounted to 527 ± 68.9 nM.

(Values after article PMC7672424 (Nucleic Acids Research, 2020).)
